Patent publication US20200231614A1, “PSMA TARGETED RADIOHALOGENATED UREAS FOR CANCER RADIOTHERAPY” (THE JOHNS HOPKINS UNIVERSITY, priority 2015, published 2020)
Read-outs that look alike come from different tables or passages of the source.

Test system: PSMA + PC-3 PiP and PSMA − PC-3 flu tumor xenografts
Details: for Biodistribution: PC-3 PiP: PSMA+ tumor xenograft; for Biodistribution: PC-3 flu: PSMA− tumor xenograft; for PSMA positive tumor uptake (in words): biodistributions of Tables 2, 3, 9, 10
[1] = 21 H post-injection, comparative Table 13

## O=C(O)CC[C@H](NC(=O)N[C@@H](CCC(=O)NCCc1ccc([131I])cc1)C(=O)O)C(=O)O [[^131I]HS-549]
1 H post-injection
  Biodistribution: Lrg Int.: 0.52 ± 0.12 % ID/g
  Biodistribution: Sm int.: 1.98 ± 0.30 % ID/g
  Biodistribution: bladder: 4.34 ± 2.16 % ID/g
  Biodistribution: blood: 5.90 ± 1.05 % ID/g
  Biodistribution: heart: 2.30 ± 0.63 % ID/g
  Biodistribution: kidney: 106 ± 18.9 % ID/g
  Biodistribution: liver: 21.2 ± 4.14 % ID/g
  Biodistribution: lung: 4.60 ± 1.09 % ID/g
  Biodistribution: muscle: 0.86 ± 0.26 % ID/g
  Biodistribution: spleen: 6.76 ± 3.42 % ID/g
  Biodistribution: stomach: 0.92 ± 0.20 % ID/g
  Biodistribution: thyroid: 1.17 ± 0.43 % ID/g
  Biodistribution: PC-3 PiP: 78.1 ± 19.1 % ID/g
  Biodistribution: PC-3 flu: 2.21 ± 0.53 % ID/g
2 H post-injection
  Biodistribution: Lrg Int.: 1.32 ± 0.25 % ID/g
  Biodistribution: Sm int.: 2.42 ± 0.40 % ID/g
  Biodistribution: bladder: 2.34 ± 1.04 % ID/g
  Biodistribution: blood: 2.92 ± 0.32 % ID/g
  Biodistribution: heart: 1.14 ± 0.18 % ID/g
  Biodistribution: kidney: 96.6 ± 39.1 % ID/g
  Biodistribution: liver: 26.0 ± 3.09 % ID/g
  Biodistribution: lung: 2.73 ± 0.66 % ID/g
  Biodistribution: muscle: 0.46 ± 0.12 % ID/g
  Biodistribution: spleen: 2.71 ± 0.85 % ID/g
  Biodistribution: stomach: 0.47 ± 0.17 % ID/g
  Biodistribution: thyroid: 0.69 ± 0.29 % ID/g
  tumor/kidney ratio: 0.8
  Biodistribution: PC-3 PiP: 74.7 ± 13.1 % ID/g
  Biodistribution: PC-3 flu: 1.51 ± 0.30 % ID/g
21 H post-injection
  Biodistribution: Lrg Int.: 0.63 ± 0.39 % ID/g
  Biodistribution: Sm int.: 0.37 ± 0.06 % ID/g
  Biodistribution: bladder: 0.65 ± 0.20 % ID/g
  Biodistribution: blood: 1.39 ± 0.35 % ID/g
  Biodistribution: heart: 0.41 ± 0.09 % ID/g
  Biodistribution: kidney: 3.13 ± 1.65 % ID/g
  Biodistribution: liver: 1.86 ± 0.51 % ID/g
  Biodistribution: lung: 0.87 ± 0.27 % ID/g
  Biodistribution: muscle: 0.16 ± 0.04 % ID/g
  Biodistribution: spleen: 0.29 ± 0.12 % ID/g
  Biodistribution: stomach: 0.14 ± 0.04 % ID/g
  Biodistribution: thyroid: 0.36 ± 0.05 % ID/g
  tumor/kidney ratio: 7.2
  Biodistribution: PC-3 PiP: 22.6 ± 22.1 % ID/g
  Biodistribution: PC-3 flu: 0.44 ± 0.18 % ID/g
[1]
  Non-target organ uptake: spleen: 0.3 % D/g
  Non-target organ uptake: stomach: 0.14 % D/g
  Non-target organ uptake: thyroid: 0.36 % D/g
  PSMA positive tumor uptake (in words): demonstrated PSMA positive tumor uptake
Compared with [^131I]YC-I-27 and [^211At]YC-I-27
  Clearance from the kidneys (in words): clear from the kidneys giving higher tumor to kidney ratios

## O=C(O)CC[C@H](NC(=O)N[C@@H](CCCCNC(=O)c1ccc([131I])cc1)C(=O)O)C(=O)O [[^131I]YC-I-27]
1 H post-injection
  Biodistribution: Sm int.: 1.83 ± 0.41 % ID/g
  Biodistribution: bladder: 2.99 ± 0.42 % ID/g
  Biodistribution: blood: 1.57 ± 0.69 % ID/g
  Biodistribution: heart: 1.88 ± 0.66 % ID/g
  Biodistribution: liver: 7.37 ± 1.29 % ID/g
  Biodistribution: lung: 4.67 ± 0.63 % ID/g
  Biodistribution: muscle: 0.73 ± 0.22 % ID/g
  Biodistribution: spleen: 21.2 ± 3.62 % ID/g
  Biodistribution: stomach: 0.92 ± 0.16 % ID/g
  Biodistribution: thyroid: 0.45 ± 0.14 % ID/g
  Biodistribution: PC-3 PiP: 13.1 ± 5.55 % ID/g
  Biodistribution: PC-3 flu: 0.62 ± 0.11 % ID/g
2 H post-injection
  Biodistribution: Sm int.: 1.92 ± 0.55 % ID/g
  Biodistribution: bladder: 2.96 ± 1.12 % ID/g
  Biodistribution: blood: 0.86 ± 0.20 % ID/g
  Biodistribution: heart: 1.31 ± 0.58 % ID/g
  Biodistribution: liver: 5.69 ± 1.49 % ID/g
  Biodistribution: lung: 4.92 ± 1.95 % ID/g
  Biodistribution: muscle: 0.62 ± 0.19 % ID/g
  Biodistribution: spleen: 26.25 ± 15.11 % ID/g
  Biodistribution: stomach: 0.71 ± 0.46 % ID/g
  Biodistribution: thyroid: 0.24 ± 0.18 % ID/g
  Biodistribution: PC-3 PiP: 15.5 ± 4.19 % ID/g
  Biodistribution: PC-3 flu: 0.40 ± 0.11 % ID/g
4 H post-injection
  Biodistribution: Sm int.: 1.37 ± 0.51 % ID/g
  Biodistribution: bladder: 1.37 ± 0.48 % ID/g
  Biodistribution: blood: 0.59 ± 0.27 % ID/g
  Biodistribution: heart: 0.87 ± 0.24 % ID/g
  Biodistribution: liver: 3.21 ± 1.14 % ID/g
  Biodistribution: lung: 2.72 ± 1.01 % ID/g
  Biodistribution: muscle: 0.43 ± 0.30 % ID/g
  Biodistribution: spleen: 18.2 ± 6.19 % ID/g
  Biodistribution: stomach: 0.69 ± 0.23 % ID/g
  Biodistribution: thyroid: 0.10 ± 0.22 % ID/g
  Biodistribution: PC-3 PiP: 16.3 ± 3.80 % ID/g
  Biodistribution: PC-3 flu: 0.22 ± 0.07 % ID/g
21 H post-injection
  Biodistribution: Sm int.: 0.33 ± 0.12 % ID/g
  Biodistribution: bladder: 0.48 ± 0.09 % ID/g
  Biodistribution: blood: 0.16 ± 0.06 % ID/g
  Biodistribution: heart: 0.46 ± 0.22 % ID/g
  Biodistribution: liver: 0.56 ± 0.09 % ID/g
  Biodistribution: lung: 1.63 ± 0.47 % ID/g
  Biodistribution: muscle: 0.14 ± 0.03 % ID/g
  Biodistribution: spleen: 5.25 ± 1.51 % ID/g
  Biodistribution: stomach: 0.40 ± 0.07 % ID/g
  Biodistribution: thyroid: 0.13 ± 0.11 % ID/g
  Biodistribution: PC-3 PiP: 25.6 ± 10.2 % ID/g
  Biodistribution: PC-3 flu: 0.06 ± 0.01 % ID/g
  PSMA positive tumor uptake (in words): demonstrated PSMA positive tumor uptake
